According to the supplement of paper PMC10307832:

Assays:
Test in all cases: relative viability (nuclei count vs DMSO), 5 days (fraction); higher = more cells survive
NCI-H1792 = conditions: first compound 1.265 µM
Method in brief: (§1)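 Relative viability equals treated-well nuclei counts divided by vehicle-well nuclei counts. Counts came from 4× images of lung cancer cell lines grown in 1536-well plates for 5 days after pin-tool dosing on the day after seeding. Dosing used one drug alone or a fixed anchor-drug dose plus five library-drug doses (not always all listed) in √10 steps, and values are medians of duplicate plates.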

NCI-H1793 = system: NCI-H1793
Method in brief: as §1

NCI-H1915 = system: NCI-H1915
Method in brief: as §1

NCI-H1944 = system: NCI-H1944
Method in brief: as §1

NCI-H1975 = system: NCI-H1975
Method in brief: as §1

NCI-H2085 = system: NCI-H2085
Method in brief: as §1

NCI-H2170 = system: NCI-H2170
Method in brief: as §1

NCI-H358 = system: NCI-H358
Method in brief: as §1

NCI-H460 = system: NCI-H460
Method in brief: as §1

SK-LU-1 = system: SK-LU-1
Method in brief: as §1

SW 900 = system: SW 900
Method in brief: as §1

UMC-11 = system: UMC-11
Method in brief: as §1

Compound `O=C(O)c1ccc(-c2c[nH]c3ncc(-c4ccccc4)cc23)cc1C1CCCC1` + N=C(N)NC(=N)NCCc1ccccc1 [Phenformin] (partner 250 µM) has a relative viability (NCI-H1792) of 0.413, a relative viability (NCI-H1793; first compound 0.04 µM) of 0.404 and a relative viability (NCI-H1793; first compound 0.1265 µM) of 0.494. For the same compound, the relative viability (NCI-H1793; first compound 0.4 µM) was 0.374, the relative viability (NCI-H1793; first compound 1.265 µM) was 0.365 and the relative viability (NCI-H1915; first compound 0.04 µM) was 0.376. It also gave a relative viability (NCI-H1915; first compound 0.1265 µM) of 0.362, a relative viability (NCI-H1915; first compound 0.4 µM) of 0.34 and a relative viability (NCI-H1915; first compound 1.265 µM) of 0.295. It also gave a relative viability (NCI-H1944; first compound 0.04 µM) of 0.191, a relative viability (NCI-H1944; first compound 0.1265 µM) of 0.214 and a relative viability (NCI-H1944; first compound 0.4 µM) of 0.194. For the same compound, the relative viability (NCI-H1944; first compound 1.265 µM) was 0.172, the relative viability (NCI-H1975; first compound 0.04 µM) was 0.41 and the relative viability (NCI-H1975; first compound 0.1265 µM) was 0.423. It also gave a relative viability (NCI-H1975; first compound 0.4 µM) of 0.388, a relative viability (NCI-H1975; first compound 1.265 µM) of 0.298 and a relative viability (NCI-H2085; first compound 0.04 µM) of 0.84. For the same compound, the relative viability (NCI-H2085; first compound 0.1265 µM) was 0.897, the relative viability (NCI-H2085; first compound 0.4 µM) was 0.688 and the relative viability (NCI-H2085; first compound 1.265 µM) was 0.595. The relative viability (NCI-H2170; first compound 0.04 µM) was 0.434, the relative viability (NCI-H2170; first compound 0.1265 µM) was 0.413 and the relative viability (NCI-H2170; first compound 0.4 µM) was 0.459. It also gave a relative viability (NCI-H2170; first compound 1.265 µM) of 0.362, a relative viability (NCI-H358; first compound 0.04 µM) of 0.347 and a relative viability (NCI-H358; first compound 0.1265 µM) of 0.379. For the same compound, the relative viability (NCI-H358; first compound 0.4 µM) was 0.292, the relative viability (NCI-H358; first compound 1.265 µM) was 0.124 and the relative viability (NCI-H460; first compound 0.04 µM) was 0.536. For the same compound, the relative viability (NCI-H460; first compound 0.1265 µM) was 0.526, the relative viability (NCI-H460; first compound 0.4 µM) was 0.507 and the relative viability (NCI-H460; first compound 1.265 µM) was 0.46. The relative viability (SK-LU-1; first compound 0.04 µM) was 0.537, the relative viability (SK-LU-1; first compound 0.1265 µM) was 0.585 and the relative viability (SK-LU-1; first compound 0.4 µM) was 0.459. The relative viability (SK-LU-1; first compound 1.265 µM) was 0.363, the relative viability (SW 900; first compound 0.04 µM) was 0.706 and the relative viability (SW 900; first compound 0.1265 µM) was 0.615. For the same compound, the relative viability (SW 900; first compound 0.4 µM) was 0.654, the relative viability (SW 900; first compound 1.265 µM) was 0.381 and the relative viability (UMC-11; first compound 0.04 µM) was 0.331. For the same compound, the relative viability (UMC-11; first compound 0.1265 µM) was 0.324, the relative viability (UMC-11; first compound 0.4 µM) was 0.306 and the relative viability (UMC-11; first compound 1.265 µM) was 0.265.
